Test results as given in patent publication US6762188B1, “Pharmaceutically active benzoquinazoline compounds” (SmithKline Beecham Corporation, priority 1990, dated 2004).
Read-outs that look alike come from different tables or passages of the source.

Legend:
[1] = biological target: T1, Mammalian Thymidylate Synthase (Homo sapiens, UniProt P04818); experiment: Thymidylate synthase inhibition, tritium release assay; format: biochemical
T1 construct: made in house; host or cells: Escherichia coli
T1 sequence (P04818 whole entry): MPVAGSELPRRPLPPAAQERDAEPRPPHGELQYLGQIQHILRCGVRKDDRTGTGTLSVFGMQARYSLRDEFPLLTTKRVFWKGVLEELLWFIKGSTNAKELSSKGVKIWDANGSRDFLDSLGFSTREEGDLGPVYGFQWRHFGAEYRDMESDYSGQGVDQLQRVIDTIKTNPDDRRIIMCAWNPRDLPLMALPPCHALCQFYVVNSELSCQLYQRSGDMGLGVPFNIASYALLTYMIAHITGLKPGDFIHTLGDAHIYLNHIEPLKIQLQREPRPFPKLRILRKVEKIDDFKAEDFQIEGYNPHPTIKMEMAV

[2] = test system: SW480 human colon adenocarcinoma; experiment: Tumor cell culture cytotoxicity (MTT dye reduction), SW480
Method: SW480 and WiDr colon adenocarcinomas, MCF-7 breast adenocarcinoma, A427 lung carcinoma and MOLT-4 T-cell leukemia were used for the primary screening of compounds. […] MCF-7, A427 and SW480 were grown in the above medium further supplemented with sodium pyruvate.
(§1) Cells are seeded into 96-well plates using a Perkin-Elmer Pro/pette. SW480 and A427 were seeded at 8,000 cells per well, MCF-7 at 10,000, Widr at 7500, and MOLT-4 at 12,500 cells per well, all in 150 µl of medium. Prior to the addition of drugs, cultures were incubated for 24 hrs at 37°. Compounds were added at 2×concentration in 150 l of medium and each concentration was assayed in triplicate. If DMSO or ethanol were used to solubilize compounds, appropriate controls were run if the concentration exceeded 0.01%. Cultures were incubated for 72 hours (96 hours for SW480 and MCF-7) in a 37° humidified incubator at 5% CO2. Inhibition of cell growth was measured using the MTT dye reduction assay.
(§2) Cell dilutions for a standard curve were prepared from a 72 hour log-phase culture. Serial dilutions were seeded in triplicate in 96-well plates and incubated at 37 degrees for one hour. MTT (3-(4,5-dimethylthiazol-2-yl)-2,5-diphenyltetrazolium bromide) was dissolved in PBS at 5 mg/ml and sonicated for 30 seconds. Using the Perkin Elmer Pro/pette, 200 μl of medium was removed and 100 μl of MTT added to the wells of the standard curve and test plates. Suspension cultures were spun for 5 min at 1000 rpm before removing medium from the wells. Plates were incubated for 1 hour at 370 on a platform shaker. Following this incubation 100 ml of medium was removed from the wells and 100 μl of DMSO added to each well. The plates were sonicated for approximately 10 seconds to solubilize the precipitated formazan dye. The absorbance of each well was measured using a Titertek Multiscan MC microtiter plate reader at 570 nm with a reference wavelength of 750 nm. Data was collected using a Mariachi Seed-2 and stored and analyzed using an IBM-AT and Lotus 1-2-3 software.

[3] = Cell culture cytotoxicity, D98; format: cell-based; details: human, D98 bone marrow cell line, read-out: Tumor Cell Culture Cytotoxicity IC50 Other (D98)
Method: as §1, §2

[4] = Cell culture cytotoxicity, L cells; format: cell-based; details: mouse, L fibroblast cell line, read-out: Tumor Cell Culture Cytotoxicity IC50 Other (L)
Method: as §1, §2

[5] = Homo sapiens, SW480, read-out: Tumor Cell Culture Cytotoxicity IC50 SW480, Table B, fully aromatic 3-amino derivatives
[6] = Table D, 5,6-dihydro 3-methyl derivatives
[7] = Table E, fully aromatic 3-methyl derivatives
[8] = Homo sapiens, SW480, read-out: Tumor Cell Culture Cytotoxicity IC50 SW480, Table E, fully aromatic 3-methyl derivatives
[9] = Homo sapiens, SW480, read-out: Cell Culture Cytotoxicity CCCT SW-480, Table G, dihydrobenzoquinazoline p-aminobenzoylglutamates
[10] = Homo sapiens, SW480, read-out: Cell Culture Cytotoxicity CCCT SW-480, Table F, fully aromatic p-aminobenzoylglutamates

| SMILES | IC50 [1] [µM] | IC50 [2, 5] [µM] | other results |
| --- | --- | --- | --- |
| Nc1nc2ccc3c(I)cccc3c2c(=O)[nH]1 [3-Amino-7-iodobenzo(f)quinazolin-1(2H)-one] | 1 to 300 | 10 | – |
| Cc1nc(O)c2c(n1)CCc1ccc(I)cc1-2 [5,6-Dihydro-9-iodo-3-methylbenzo(f)quinazolin-1(2H)-one] | – | – | IC50 at 72 h [3, 6]: 70 µM; IC50 at 72 h [4, 6]: 80 µM |
| Cc1cc2nc(N)nc(O)c2c2cc(Cl)ccc12 [3-Amino-9-chloro-6-methylbenzo(f)quinazolin-1(2H)-one] | < 1 | 2 | – |
| Nc1nc2ccc3c(F)cccc3c2c(=O)[nH]1 [3-Amino-7-fluorobenzo(f)quinazolin-1(2H)-one] | 1 to 300 | 30 | – |
| Nc1nc2ccc3cc(F)cc([N+](=O)[O-])c3c2c(=O)[nH]1 [3-Amino-8-fluoro-10-nitrobenzo(f)quinazolin-1(2H)-one] | 1 to 300 | 50 | – |
| Cc1nc(O)c2c(ccc3ccc(F)cc32)n1 [9-Fluoro-3-methylbenzo(f)quinazolin-1(2H)-one] | – | – | IC50 at 72 h [3, 7]: 72 µM; IC50 at 72 h [4, 7]: 50 µM |
| CCc1ccc2ccc3nc(N)[nH]c(=O)c3c2c1 [3-Amino-9-ethylbenzo(f)quinazolin-1(2H)-one] | < 1 | 20 | – |
| Nc1nc2ccc3ccc(Br)c([N+](=O)[O-])c3c2c(=O)[nH]1 [3-Amino-9-bromo-10-nitrobenzo(f)quinazolin-1(2H)-one] | < 1 | 20 | – |
| Nc1nc2c3ccccc3c3ccccc3c2c(=O)[nH]1 [2-Aminodibenzo(f,h)quinazolin-4(3H)-one] | 1 to 300 | 4 | – |
| Cc1ccc2ccc3nc(N)nc(O)c3c2c1 [3-Amino-9-methylbenzo(f)quinazolin-1(2H)-one] | < 1 | 30 | IC50 at 72 h ([4]; Table B, fully aromatic 3-amino derivatives): 8 µM |
| Nc1nc2ccc3cc(F)cc(N)c3c2c(=O)[nH]1 [3,10-Diamino-8-fluorobenzo(f)quinazolin-1(2H)-one] | 1 to 300 | 70 | – |
| Nc1nc2ccc3ccc(Br)c(N)c3c2c(=O)[nH]1 [3,10-Diamino-9-bromobenzo(f)quinazolin-1(2H)-one] | < 1 | 30 | – |
| Nc1nc2ccc3c([N+](=O)[O-])c(Br)ccc3c2c(=O)[nH]1 [3-Amino-8-bromo-7-nitrobenzo(f)quinazolin-1(2H)-one] | 1 to 300 | 25 | – |
| Cc1nc2ccc3ccc(Oc4ccc(C#N)cc4)cc3c2c(=O)[nH]1 [4-((1,2-Dihydro-3-methyl-1-oxobenzo[f]quinazolin-9-yl)oxy)benzonitrile] | – | – | IC50 [2, 8]: > 10 µM |
| Cc1nc2ccc3ccc(CNc4ccccc4)cc3c2c(=O)[nH]1 [3-Methyl-9-(anilinomethyl)benzo(f)quinazolin-1(2H)-one] | – | – | IC50 [2, 8]: 7 µM |
| Nc1ccc2ccc3nc(N)[nH]c(=O)c3c2c1 [3,9-Diaminobenzo(f)quinazolin-1(2H)-one] | < 1 | 80 | – |
| Cc1nc2ccc3c(Cl)cccc3c2c(=O)[nH]1 [7-Chloro-3-methylbenzo(f)quinazolin-1(2H)-one] | – | – | IC50 at 72 h [4, 7]: 84 µM |

| SMILES | IC50 [1] [µM] | IC50 [2, 5] [µM] | other results |
| --- | --- | --- | --- |
| Cc1nc2ccc3ccc(CNc4ccc(C(=O)CC(CCC(=O)O)C(=O)O)cc4)cc3c2c(=O)[nH]1 (racemic) [(RS)-2-(2-(4-(((1,2-Dihydro-3-methyl-1-oxobenzo[f]quinazolin-9-yl)methyl)amino)phenyl)-2-oxoethyl)glutaric acid] | – | – | IC50 [2, 8]: 0.03 µM |
| Cc1nc2ccc3ccc(CNc4ccc([N+](=O)[O-])cc4)cc3c2c(=O)[nH]1 [3-Methyl-9-((4-nitroanilino)methyl)benzo)(f)quinazolin-1(2H)-one] | – | – | IC50 [2, 8]: 0.4 µM |
| Nc1nc2c(c(=O)[nH]1)-c1cc(S(=O)(=O)Nc3ccc(C(=O)N[C@@H](CCC(=O)O)C(=O)O)cc3)c(Br)cc1CC2 [N-(4-(((3-Amino-8-bromo-1,2,5,6-tetrahydro-1-oxobenzo(f)quinazolin-9-yl)sulfonyl)amino)benzoyl)-L-glutamic acid] | – | – | IC50 [2, 9]: > 50 µM |
| Cc1nc2ccc3cc(CNc4ccc(C(=O)N[C@@H](CCC(=O)O)C(=O)O)cc4)ccc3c2c(=O)[nH]1 [N-(4-(((1,2-Dihydro-3-methyl-1-oxobenzo[f]quinazolin-8-yl)methyl)amino)benzoyl)-L-glutamic acid] | – | – | IC50 [2, 10]: > 100 µM |
| Cc1nc2ccc3ccc(/C=C/c4ccc(C(=O)N[C@@H](CCC(=O)O)C(=O)O)cc4)cc3c2c(=O)[nH]1 [(E)-N-(4-(2(1,2-Dihydro-3-methyl-1-oxobenzo[f]quinazolin-9-yl)vinyl)benzoyl)-L-glutamic acid] | – | – | IC50 [2, 10]: > 100 µM |
| Nc1nc2ccc3c(N)c(Br)ccc3c2c(=O)[nH]1 [3,7-Diamino-8-bromobenzo(f)quinazolin-1(2H)-one] | 1 to 300 | 20 | – |
| CCN(CC)S(=O)(=O)c1cc2c(cc1Br)CCc1nc(N)[nH]c(=O)c1-2 [3-Amino-8-bromo-N,N-diethyl-1,2,5,6-tetrahydro-1-oxobenzo(f)quinazoline-9-sulfonamide] | – | – | IC50 ([2]; Homo sapiens, SW480, read-out: Tumor Cell Culture Cytotoxicity IC50 SW480, Table C, 5,6-dihydro 3-amino derivatives): 7.5 µM |
| Cc1nc2ccc3ccc(Cl)cc3c2c(=O)[nH]1 [9-Chloro-3-methylbenzo(f)quinazolin-1(2H)-one] | – | – | IC50 at 72 h [3, 7]: 82 µM; IC50 at 72 h [4, 7]: 80 µM |
| CCN(CC)S(=O)(=O)c1cc2c(ccc3nc(N)[nH]c(=O)c32)cc1Br [3-Amino-8-bromo-N,N-diethyl-1,2-dihydro-1-oxobenzo(f)quinazoline-9-sulfonamide] | 1 to 300 | 2.5 | – |
| Nc1nc2ccc3ccc(NS(=O)(=O)c4ccc(C(=O)N[C@@H](CCC(=O)O)C(=O)O)cc4)cc3c2c(=O)[nH]1 [N-(4-(((3-Amino-1,2-dihydro-1-oxobenzo(f)quinazolin-9-yl)amino)sulfonyl)benzoyl)-L-glutamic acid] | – | – | IC50 [2, 10]: > 100 µM |
| Nc1nc2ccc3ccc(O)cc3c2c(=O)[nH]1 [3-Amino-9-hydroxybenzo(f)quinazolin-1(2H)-one] | < 1 | 40 | – |
| C#CCN(CC#C)S(=O)(=O)c1ccc2c(c1)CCc1nc(N)[nH]c(=O)c1-2 [8-SO2N-(Propargyl)2, 3-Amino-1,2,5,6-tetrahydro-1-oxo-N,N-bis(prop-2-vnyl)benzo[f]quinazoline-8-sulfonamide] | – | – | IC50 ([2]; read-out: Tumor Cell Culture Cytotoxicity IC50 SW480, Table C, 5,6-dihydro 3-amino derivatives): 60 µM |
| CSc1ccc2c(c1)-c1c(nc(N)[nH]c1=O)CC2 [3-Amino-5,6-dihydro-9-(methylthio)benzo(f)quinazolin-1(2H)-one] | – | – | IC50 at 72 h ([4]; Table C, 5,6-dihydro 3-amino derivatives): 46 µM |
| Nc1nc2c(c(=O)[nH]1)-c1ccc(S(=O)(=O)Nc3ccc(C(=O)N[C@@H](CCC(=O)O)C(=O)O)cc3)cc1CC2 [N-(4-(((3-Amino-1,2,5,6-tetrahydro-1-oxobenzo(f)quinazolin-8-yl)sulfonyl)amino)benzoyl)-L-glutamic acid] | – | – | IC50 [2, 9]: 25 µM |
| Cc1nc2c(c(=O)[nH]1)-c1cc(S(=O)(=O)N(C)c3ccc(C(=O)N[C@@H](CCC(=O)O)C(=O)O)cc3)ccc1CC2 [N-(4-(Methyl((1,2,5,6-tetrahydro-3-methyl-1-oxobenzo(f)quinazolin-9-yl)sulfonyl)amino)benzoyl)-L-glutamic acid] | – | – | IC50 [2, 9]: > 50 µM |
| Cc1nc2ccc3ccc(CNc4ccc(C(=O)O)cc4)cc3c2c(=O)[nH]1 [4-(((1,2-Dihydro-3-methyl-1-oxobenzo[f]quinazolin-9-yl)methyl)amino)benzoic acid] | – | – | IC50 [2, 8]: 2.2 µM |
| C=Cc1ccc2ccc3nc(N)[nH]c(=O)c3c2c1 [Example 9-Ethenyl, 3-Amino-9-vinylbenzo[f]quinazolin-1(2H)-one] | – | 6 | – |
